Experimental data taken from patent publication US20230090742A1, “AMINOPYRIMIDINYLAMINOBENZONITRILE DERIVATIVES AS NEK2 INHIBITORS” (Sumitomo Pharma Oncology, Inc., priority 2020, published 2023).

Target: T1, NEK2 (Homo sapiens, UniProt P51955)
T1 construct: expressed in transfected cells; host or cells: HEK293
T1 sequence (P51955 1-445): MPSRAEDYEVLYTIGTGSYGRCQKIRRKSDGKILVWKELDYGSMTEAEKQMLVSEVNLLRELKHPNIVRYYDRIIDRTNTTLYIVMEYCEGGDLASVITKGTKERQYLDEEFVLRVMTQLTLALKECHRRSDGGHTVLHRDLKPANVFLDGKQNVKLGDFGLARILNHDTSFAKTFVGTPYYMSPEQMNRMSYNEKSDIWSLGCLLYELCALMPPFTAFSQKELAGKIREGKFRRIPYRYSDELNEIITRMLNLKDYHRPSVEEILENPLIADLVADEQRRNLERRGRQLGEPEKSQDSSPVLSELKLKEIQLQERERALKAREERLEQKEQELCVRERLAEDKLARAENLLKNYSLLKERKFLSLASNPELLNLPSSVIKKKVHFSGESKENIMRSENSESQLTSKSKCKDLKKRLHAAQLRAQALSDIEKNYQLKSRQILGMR
Assay: NanoBRET Target Engagement Intracellular Kinase Assay for NEK2 in transfected HEK293 cells
Format: cell-based
Settings: NEK2 target engagement, read-out: NanoBRET IC50
Protocol: In this example, the compounds described herein were tested for their inhibitory activity against NEK2 using a model of in vivo activity by the NanoBRET™ Target Engagement Intracellular Kinase Assay (Reaction Biology Corp.). The assay was performed according to the manufacturer's protocol, as detailed below.
HEK293 cells were cultivated (70-80% confluence) prior to the assay. The sample was trypsinized and HEK293 cells were collected.
To prepare lipid: DNA complexes, a 10 μg/ml solution of DNA in Opti-MEM without serum was prepared that consisted of the following ratios of carrier DNA and DNA encoding NanoLuc® fusion: 9.0 μg/ml of Transfection Carrier DNA, 1.0 μg/ml of NanoLuc fusion vector DNA and 1 ml of Opti-MEM without phenol red. The solution was mixed thoroughly. 30 μl of FuGENE HD Transfection Reagent was added into each milliliter of DNA mixture to form lipid: DNA complex. The sample was mixed by inversion 10 times and then incubated at ambient temperature for 20 minutes to allow complexes to form. In a sterile, conical tube, 1 part of lipid:DNA complex was mixed with 20 parts of HEK293 cells in suspension. The resulting sample was mixed gently by inversion 5 times. The cell and lipid: DNA complex was dispensed into a sterile tissue culture dish and incubated for 22-24 hours.
Each test compound is delivered from the compound source plate to the wells of 384-well white NBS plate by Echo 550.
Step 3. Preparation of Cells with NanoBRET™ Tracer K5 Reagent:
The medium was removed from the dish with the transfected HEK293 cells via aspiration, trypsinized and cells were allowed to dissociate from the dish. Trypsin was neutralized using medium containing serum and centrifuged at 200×g for 5 minutes to pellet the cells. The cell density was adjusted to 2×10^5 cells/ml in Opti-MEM without phenol red.
The Complete 20× NanoBRET™ Tracer K5 Reagent with Tracer Dilution Buffer was prepared according to the manufacturer's instructions. One part of Complete 20× NanoBRET™ Tracer Reagent was added to 20 parts of cells in the tube. The sample was mixed gently by inversion 10 times. Next, the cell suspension was dispensed into white, 384-well NBS plates with a final tracer K5 concentration of 2 μM. The plate was incubated at 37° C., 5% CO2 for 1 hour. A separate set of samples without tracer were prepared for background correction steps.
The plate was removed from the incubator and equilibrated to room temperature for 15 minutes. The 3× Complete Substrate plus Inhibitor Solution in Assay Medium (Opti-MEMR I Reduced Serum Medium, no phenol red) was prepared just before measuring BRET. The 3× Complete Substrate plus Inhibitor Solution was added to each well of the 384-well plate and incubated for 2-3 minutes at room temperature. The donor emission wavelength (460 nm) and acceptor emission wavelength (600 nm) were measured using the Envision 2104 plate reader.
To generate raw BRET ratio values, the acceptor emission value (600 nm) was divided by the donor emission value (460 nm) for each sample. To correct for background, the BRET ratio in the absence of tracer (average of no-tracer control samples) was subtracted from the BRET ratio of each sample.
BRET Ratio=[(Acceptor sample÷Donor sample)−(Acceptor no-tracer control÷Donor no-tracer control)]

IC50: ≤ 50 nM
SMILES: N#Cc1c(Nc2nc(Nc3ccc(N4CCNCC4)cc3)ncc2Cl)cccc1OCc1ccccc1F [Compound 16, 2-((5-chloro-2-((4-(piperazin-1-yl)phenyl)amino)pyrimidin-4-yl)amino)-6-((2-fluorobenzyl)oxy)benzonitrile]
